Results from patent US9359634B2, “Fast reaction kinetics of enzymes having low activity in dry chemistry layers” (Roche Diabetes Care, Inc., priority 2009, dated 2016).

Experiments:
[1] = molecular target: T1, wild type glucose dehydrogenase (GlucDH) from Bacillus subtilis (Bacillus subtilis, UniProt P12310, A229V/A236S/Q252K); experiment: Detection of ternary complexes by NADH fluorescence in the cuvette test; assay type: binding
Description: In order to check the existence of ternary complexes consisting of enzyme, reduced coenzyme and glucose or gluconolactone, experiments on the binding of the analyte based on the fluorescence properties of NADH were carried out in the cuvette test.
For this purpose, 1 mg NADH (Roche Company) was dissolved in 1 ml phosphate buffer and the associated fluorescence spectrum was recorded. Subsequently, 10 mg wild type glucose dehydrogenase (GlucDH) from Bacillus subtilis was added whereupon the complex GlucDH-NADH known from the literature was formed, which complex, due to a considerably longer life time of NADH (3 ns compared to 0.4 ns in the free state), yielded a shifted emission maximum at 450 nm (see FIG. 3).
The lowering of the fluorescence which also corresponds to a shortening of the life time is presumably due to the rapid energy depletion by the redox pair NADH-gluconolactone.

[2] = molecular target: T1, wild type glucose dehydrogenase (GlucDH) from Bacillus subtilis; conditions: in the complex GlucDH-NADH; cited from earlier work
[3] = molecular target: glucose dehydrogenase from Bacillus subtilis (Bacillus subtilis, UniProt P12310, A229V/A236S/Q252K); assay type: biochemical; conditions: dry reagent layer with wild type glucose dehydrogenase, blood applied, presence vs absence of gluconolactone
Chain of glucose dehydrogenase from Bacillus subtilis (P12310 whole entry A229V/A236S/Q252K): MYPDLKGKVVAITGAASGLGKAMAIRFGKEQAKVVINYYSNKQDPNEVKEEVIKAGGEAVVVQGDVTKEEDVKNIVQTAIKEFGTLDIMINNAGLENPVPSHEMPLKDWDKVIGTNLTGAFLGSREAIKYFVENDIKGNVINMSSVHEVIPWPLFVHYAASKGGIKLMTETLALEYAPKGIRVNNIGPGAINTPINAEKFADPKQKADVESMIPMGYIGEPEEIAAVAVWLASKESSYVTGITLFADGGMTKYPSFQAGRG

T1 sequence (P12310 whole entry A229V/A236S/Q252K): as above

Row | Structure (SMILES) | emission maximum ([1]; NADH in the complex GlucDH-NADH, phosphate buffer) [nm] | life time of NADH [2] [ns] | change of fluorescence on titration of the complex GlucDH-NADH ([1]; binary complex GlucDH-NADH titrated with the substance) | emission maximum ([1]; complex GlucDH-NADH after titration with gluconolactone) [nm] | effect of added gluconolactone on the conversion of glucose [3]
1 | NC(=O)C1=CN([C@@H]2O[C@H](COP(=O)(O)OP(=O)(O)OC[C@H]3O[C@@H](n4cnc5c(N)ncnc54)[C@H](O)[C@@H]3O)[C@@H](O)[C@H]2O)C=CC1 [NADH] | 450 | 3 | – | – | –
2 | O=C1O[C@H](CO)[C@@H](O)[C@H](O)[C@H]1O [gluconolactone] | – | – | lowered the fluorescence | 427 | considerable slowing down of the conversion
